The text below walks through data of patent publication US20260125375A1 (Pfizer Inc., priority 2022, published 2026).

Like-named read-outs stand apart in the source and are kept apart here.

One assay has as its target T1, CBL-B (Homo sapiens, UniProt Q13191).
T1 construct: endogenous in cells; host or cells: Jurkat HiBit-IL2 reporter cells, C-CBL knocked out by CRISPR
Kind of assay: Jurkat HiBit-IL2 assay (c-CBL KO), reporter cell line expressing CBL-B only. It is filed as cell-based. The note with it: geometric mean, read-out: C-CBL KO EC50 (nM) GMean. Summed up: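 IL-2 secretion was measured by HiBiT luminescence after 1 h compound exposure (0.1% DMSO) and 4 h TCR/CD28 stimulation (final anti-CD3 1 μg/ml, anti-CD28 2 μg/ml, 37 °C) of Jurkat reporters lacking c-CBL or CBL-B. EC50 came from fold-of-effect versus stimulated-only cells, as geometric means across tests.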
Background: With HiBiT, luminescence reflects the tagged protein that the partner subunit can reach.

A further assay has as its target T2, C-CBL (46-435) (Homo sapiens, UniProt P22681).
T2 construct: N-terminal biotinylated WT CBL-B (36-427) and C-CBL (46-435) were captured on a streptavidin (SA) coated sensor chip
T2 sequence (P22681 46-435): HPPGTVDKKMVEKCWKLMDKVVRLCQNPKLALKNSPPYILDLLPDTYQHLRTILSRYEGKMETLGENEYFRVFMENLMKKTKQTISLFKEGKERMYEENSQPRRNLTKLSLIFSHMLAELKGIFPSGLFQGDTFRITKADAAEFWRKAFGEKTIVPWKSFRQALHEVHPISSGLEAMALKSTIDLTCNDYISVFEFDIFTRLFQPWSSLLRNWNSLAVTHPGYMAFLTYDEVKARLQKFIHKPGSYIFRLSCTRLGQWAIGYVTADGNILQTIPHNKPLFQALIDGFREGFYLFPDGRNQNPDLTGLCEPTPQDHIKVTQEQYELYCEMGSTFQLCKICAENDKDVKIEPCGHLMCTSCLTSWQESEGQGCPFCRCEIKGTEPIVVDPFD
Kind of assay: Surface Plasmon Resonance (SPR) assay, binding affinity and kinetics, C-CBL. The note with it: SPR at 10° C., biotinylated C-CBL (46-435) on streptavidin chip; geometric mean; read-out: C-CBL SPR Kd (nM) GMean. Summed up:
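SPR kinetics at 10° C, run either single-cycle (0.001–1 μM, 3-fold, 6 points, 120 s on, >5400 s off) or multi-cycle (10 points, 2-fold, top 10 or 100 μM, 90 s on). Proteins were N-biotinylated CBL-B (36-427) and C-CBL (46-435) on SA surfaces, in pH 7.2 HEPES, 2% DMSO.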

The mark [1] stands for this setting: C-CBL KO (expressing CBL-B only), Table 16b (further repetition).
Setting [2] is: c-CBL KO (CBL-B only), anti-CD3/anti-CD28 stimulation 4 hours, Table 16a.

T1 sequence (Q13191 whole entry): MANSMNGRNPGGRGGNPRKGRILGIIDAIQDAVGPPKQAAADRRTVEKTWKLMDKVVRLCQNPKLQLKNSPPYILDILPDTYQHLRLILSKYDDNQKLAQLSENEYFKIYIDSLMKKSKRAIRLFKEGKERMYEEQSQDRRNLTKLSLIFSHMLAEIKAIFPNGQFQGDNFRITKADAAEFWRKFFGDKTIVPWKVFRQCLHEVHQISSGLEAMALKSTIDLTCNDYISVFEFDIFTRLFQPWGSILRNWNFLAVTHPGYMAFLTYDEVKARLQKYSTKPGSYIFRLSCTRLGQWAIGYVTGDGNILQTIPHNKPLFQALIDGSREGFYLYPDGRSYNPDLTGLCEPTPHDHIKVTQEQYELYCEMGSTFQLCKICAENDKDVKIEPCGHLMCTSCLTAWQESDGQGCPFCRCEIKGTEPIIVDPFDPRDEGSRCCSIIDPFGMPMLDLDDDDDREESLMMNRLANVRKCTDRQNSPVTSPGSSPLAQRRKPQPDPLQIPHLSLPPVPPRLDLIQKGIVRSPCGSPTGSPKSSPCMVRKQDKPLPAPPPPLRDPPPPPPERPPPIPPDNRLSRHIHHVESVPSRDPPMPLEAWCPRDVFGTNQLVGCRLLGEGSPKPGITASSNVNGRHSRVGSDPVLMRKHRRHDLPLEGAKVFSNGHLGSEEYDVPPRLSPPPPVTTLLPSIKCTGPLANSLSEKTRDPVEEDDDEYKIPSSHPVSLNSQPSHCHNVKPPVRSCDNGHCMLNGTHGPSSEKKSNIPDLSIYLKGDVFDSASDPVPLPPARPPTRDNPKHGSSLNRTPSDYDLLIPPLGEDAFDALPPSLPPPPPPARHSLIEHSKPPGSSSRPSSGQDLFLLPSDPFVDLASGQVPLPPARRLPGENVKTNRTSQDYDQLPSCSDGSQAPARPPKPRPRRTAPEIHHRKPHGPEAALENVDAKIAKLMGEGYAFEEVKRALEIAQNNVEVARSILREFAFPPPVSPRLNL

For `C[C@H](N[C@H]1CCC[C@@H]1O)c1nc(C(F)(F)F)cc2c(-c3cccc([C@H](c4nncn4C)C4CCC4)c3)n[nH]c12` (single isomer, unassigned) [Example C47], the half-maximal effective concentration (EC50) – broadly, the concentration at which the effect is half-maximal – at CBL-B (setting [1]) turned out to be 11 nM; at CBL-B (setting [2]) it was 5 nM. The Kd (commonly the equilibrium constant for the complex coming apart) on C-CBL (46-435) was 7.2 nM.
Regarding `CCNC(C)c1nc(C(F)(F)F)cc2c(-c3cccc([C@H](c4nncn4C)C4CCC4)c3)n[nH]c12` (single isomer, unassigned) [Example C89], at CBL-B (setting [1]), the EC50 worked out at 85 nM. Also, the equilibrium dissociation constant (Kd) at C-CBL (46-435) is 125 nM.
With `C[C@@H](N[C@H]1C[C@H](O)C1)c1nc(C(F)(F)F)cc2c(-c3cccc([C@H](c4nncn4C)C4CCC4)c3)n[nH]c12` (single isomer, unassigned) [Example C92], at CBL-B (setting [1]), the EC50 stood at 113 nM. Besides, at C-CBL (46-435), the dissociation constant Kd was determined as 39.5 nM.
With `C[C@H](N[C@H]1C[C@@H](F)C1)c1nc(C(F)(F)F)cc2c(-c3cccc([C@H](c4nncn4C)C4CCC4)c3)n[nH]c12` (single isomer, unassigned) [Example C95], at CBL-B (setting [1]), the EC50 is 53 nM. For the same compound, the dissociation constant Kd on C-CBL (46-435) is 72.5 nM.
With `C[C@@H](N[C@H]1C[C@@H](F)C1)c1nc(C(F)(F)F)cc2c(-c3cccc([C@H](c4nncn4C)C4CCC4)c3)n[nH]c12` (single isomer, unassigned) [Example C96], at CBL-B (setting [1]), the EC50 was 76 nM. Also, the Kd at C-CBL (46-435) stood at 91.2 nM.
For `C[C@H](N[C@@H]1CCOC1)c1nc(C(F)(F)F)cc2c(-c3cccc([C@H](c4nncn4C)C4CCC4)c3)n[nH]c12` (single isomer, unassigned) [Example D2], the concentration giving a half-maximal response (EC50) is 83 nM on CBL-B (setting [1]) and 42 nM at CBL-B (setting [2]). For the same compound, the Kd at C-CBL (46-435) is 108 nM.
As to `C[C@@H](N[C@@H]1CCOC1)c1nc(C(F)(F)F)cc2c(-c3cccc([C@H](c4nncn4C)C4CCC4)c3)n[nH]c12` (single isomer, unassigned) [Example D3], the 50% effective concentration (EC50) worked out at 67 nM on CBL-B (setting [1]) and 47 nM at CBL-B (setting [2]). Also, the Kd at C-CBL (46-435) was found to be 124 nM.
Take `C[C@@H](c1nc(C(F)(F)F)cc2c(-c3cccc(C4(Cc5nncn5C)COC4)c3)n[nH]c12)N1CCC(F)(F)C1` (single isomer, unassigned) [Example D5]: the EC50 at CBL-B (setting [2]) was 650 nM. Moreover, the dissociation constant (Kd) at C-CBL (46-435) came out at 209 nM.
For `C[C@H](c1nc(C(F)(F)F)cc2c(-c3cccc(C4(Cc5nncn5C)COC4)c3)n[nH]c12)N1CCC(F)(F)C1` (single isomer, unassigned) [Example D6], the EC50 on CBL-B (setting [2]) came out at 64 nM. Also, the Kd at C-CBL (46-435) amounted to 31 nM.
With `C[C@@H](c1nc(C(F)(F)F)cc2c(-c3cccc(C4(Cc5nncn5C)COC4)c3)n[nH]c12)N1C[C@H](F)[C@@H](F)C1` (single isomer, unassigned) [Example D7], the concentration for a half-maximal effect (EC50) at CBL-B (setting [2]) came out at 80 nM. Moreover, the Kd on C-CBL (46-435) was determined as 36 nM.
For `C[C@H](c1nc(C(F)(F)F)cc2c(-c3cccc(C4(Cc5nncn5C)COC4)c3)n[nH]c12)N1C[C@H](F)[C@@H](F)C1` (single isomer, unassigned) [Example D8] the same measures were 603 nM and 177 nM.
On to `C[C@@H](c1nc(C(F)(F)F)cc2c(-c3cccc(C4(Cc5nncn5C)COC4)c3)n[nH]c12)N1CC[C@@H](F)C1` (single isomer, unassigned) [Example D9], for which the EC50 on CBL-B (setting [2]) amounted to 627 nM. Moreover, at C-CBL (46-435), the Kd was found to be 96 nM.
Consider `C[C@H](c1nc(C(F)(F)F)cc2c(-c3cccc(C4(Cc5nncn5C)COC4)c3)n[nH]c12)N1CC[C@@H](F)C1` (single isomer, unassigned) [Example D10], for which the EC50 at CBL-B (setting [2]) turned out to be 102 nM. Besides, the Kd at C-CBL (46-435) is 42 nM.
Take `C[C@H]1CN([C@@H](C)c2nc(C(F)(F)F)cc3c(-c4cccc(C5(Cc6nncn6C)COC5)c4)n[nH]c23)CCO1` (single isomer, unassigned) [Example D11]: the EC50 on CBL-B (setting [2]) was 143 nM. The Kd on C-CBL (46-435) turned out to be 47.9 nM.
For the compound `C[C@H](c1nc(C(F)(F)F)cc2c(-c3cccc(C4(Cc5nncn5C)COC4)c3)n[nH]c12)N1CCO[C@@H](C)C1` (single isomer, unassigned) [Example D12], at CBL-B (setting [2]), the 50% effective concentration (EC50) was 612 nM. For the same compound, the equilibrium dissociation constant (Kd) on C-CBL (46-435) was 46 nM.
With `C[C@@H]1CCCN([C@@H](C)c2nc(C(F)(F)F)cc3c(-c4cccc(C5(Cc6nncn6C)COC5)c4)n[nH]c23)C1` (single isomer, unassigned) [Example D13], the EC50 at CBL-B (setting [2]) was found to be 149 nM. Further, at C-CBL (46-435), the Kd is 51.2 nM.
With `C[C@@H]1CCCN([C@H](C)c2nc(C(F)(F)F)cc3c(-c4cccc(C5(Cc6nncn6C)COC5)c4)n[nH]c23)C1` (single isomer, unassigned) [Example D14], on CBL-B (setting [2]), the EC50 was determined as 354 nM. Besides, the dissociation constant Kd on C-CBL (46-435) came to 140 nM.
Consider `C[C@H](N[C@@H]1CCC[C@@H]1O)c1nc(C(F)(F)F)cc2c(-c3cccc([C@H](c4nncn4C)C4CCC4)c3)n[nH]c12` (single isomer, unassigned) [Example D15], for which the EC50 came out at 4 nM at CBL-B (setting [1]) and 3 nM on CBL-B (setting [2]). Further, the dissociation constant (Kd) on C-CBL (46-435) was determined as 6.2 nM.
For `C[C@@H](N[C@@H]1CCC[C@@H]1O)c1nc(C(F)(F)F)cc2c(-c3cccc([C@H](c4nncn4C)C4CCC4)c3)n[nH]c12` (single isomer, unassigned) [Example D16], the EC50 on CBL-B (setting [2]) is 18 nM. Further, at C-CBL (46-435), the Kd was found to be 43.1 nM.
In the case of `C[C@H](O)CN[C@@H](C)c1nc(C(F)(F)F)cc2c(-c3cccc([C@H](c4nncn4C)C4CCC4)c3)n[nH]c12` (single isomer, unassigned) [Example D19], the 50% effective concentration (EC50) was 24 nM at CBL-B (setting [1]) and 9 nM on CBL-B (setting [2]). Also, the dissociation constant Kd on C-CBL (46-435) came out at 17.2 nM.
For `C[C@@H](N[C@H]1CC[C@@H]1O)c1nc(C(F)(F)F)cc2c(-c3cccc([C@H](c4nncn4C)C4CCC4)c3)n[nH]c12` (single isomer, unassigned) [Example D22], in that order: 12 nM, 5 nM and 9.8 nM.
For `C[C@H](N[C@@H]1CC[C@@H]1O)c1nc(C(F)(F)F)cc2c(-c3cccc([C@H](c4nncn4C)C4CCC4)c3)n[nH]c12` (single isomer, unassigned) [Example D28], the EC50 at CBL-B (setting [2]) was determined as 1 nM. Besides, the Kd on C-CBL (46-435) amounted to 2.2 nM.
Consider `C[C@H](NC1CC[C@H]1O)c1nc(C(F)(F)F)cc2c(-c3cccc([C@H](c4nncn4C)C4CCC4)c3)n[nH]c12` (single isomer, unassigned) [Example D30], for which the results for the concentration for a half-maximal effect (EC50) at CBL-B (setting [1]) and on CBL-B (setting [2]) were 10 nM and 3 nM, respectively. Besides, at C-CBL (46-435), the dissociation constant Kd worked out at 5.6 nM.
For the compound `C[C@H](NC1CC(F)(F)C1)c1nc(C(F)(F)F)cc2c(-c3cccc([C@H](c4nncn4C)C4CCC4)c3)n[nH]c12` (single isomer, unassigned) [Example D90], the half-maximal effective concentration (EC50) on CBL-B (setting [1]) turned out to be 73 nM. Also, the equilibrium dissociation constant (Kd) on C-CBL (46-435) worked out at 77.4 nM.
`C[C@@H](NC1CC(F)(F)C1)c1nc(C(F)(F)F)cc2c(-c3cccc([C@H](c4nncn4C)C4CCC4)c3)n[nH]c12` (single isomer, unassigned) [Example D91]: on CBL-B (setting [1]), the EC50 amounted to 41 nM. Besides, the Kd on C-CBL (46-435) was 35.4 nM.
On to `Cn1cnnc1[C@@H](c1cccc(-c2n[nH]c3c(CN[C@H]4CCC(F)(F)C4)nc(C(F)(F)F)cc23)c1)C1CCC1` (single isomer, unassigned) [Example G1], for which the EC50 at CBL-B (setting [2]) came to 70 nM. The equilibrium dissociation constant (Kd) at C-CBL (46-435) was found to be 60.8 nM.
For the compound `Cn1cnnc1[C@@H](c1cccc(-c2n[nH]c3cnc(C(F)(F)F)cc23)c1)C1CCC1` [Example A1, 3-{3-[(R)-cyclobutyl(4-methyl-4H-1,2,4-triazol-3-yl)methyl]phenyl}-5-(trifluoromethyl)-1H-pyrazolo[3,4-c]pyridine], the concentration for a half-maximal effect (EC50) at CBL-B (setting [1]) was 1810 nM; at CBL-B (setting [2]), greater than 2990 nM. In addition, the Kd at C-CBL (46-435) is 931 nM.
Regarding `Cn1cnnc1CC1(c2cccc(-c3n[nH]c4cnc(C(F)(F)F)cc34)c2)COC1` [Example B1, 3-(3-(3-((4-methyl-4H-1,2,4-triazol-3-yl)methyl)oxetan-3-yl)phenyl)-5-(trifluoromethyl)-1H-pyrazolo[3,4-c]pyridine], the EC50 at CBL-B (setting [2]) was greater than 8710 nM. The dissociation constant (Kd) at C-CBL (46-435) worked out at 450 nM.
Consider `Cn1cnnc1CC1(c2cccc(-c3n[nH]c4ncc(C(F)(F)F)cc34)c2)COC1` [Example B3, 3-(3-{3-[(4-methyl-4H-1,2,4-triazol-3-yl)methyl]oxetan-3-yl}phenyl)-5-(trifluoromethyl)-1H-pyrazolo[3,4-b]pyridine], for which the half-maximal effective concentration (EC50) on CBL-B (setting [2]) amounted to 1710 nM. For the same compound, the Kd at C-CBL (46-435) was found to be 861 nM.
